Data taken from patent US5140009A (Tap Pharmaceuticals, Inc., priority 1990, dated 1992).
Numbered stars: 1 amine (or outer) side, 2 acyl side, 3 side chain; on linkers, the order of the positions; unused ones are H or OH. Square brackets hold non-standard residues; d marks the D form. Peptide text beside a SMILES is read from it. * marks the point of attachment. Propanoyl(3-(4-F-phenyl)) = O=C(CCc1ccc(F)cc1)*; Propanoyl(3-(4-Cl-Ph)) = O=C(CCc1ccc(Cl)cc1)*; dPhe(4-Cl) = N[C@H](Cc1ccc(Cl)cc1)C(=O)O; X10 = O=C([C@@H](Cc1cncs1)N[*:1])[*:2]; 1Nal = N[C@@H](Cc1cccc2ccccc12)C(=O)O; d1Nal = N[C@H](Cc1cccc2ccccc12)C(=O)O; d(hCit) = NC(=O)NCCCC[C@@H](N)C(=O)O; NMeY = CN[C@@H](Cc1ccc(O)cc1)C(=O)O; hhPhe = N[C@@H](CCCc1ccccc1)C(=O)O; d3Pal = N[C@H](Cc1cccnc1)C(=O)O; d2Thi = N[C@H](Cc1cccs1)C(=O)O; Nicotinoyl = O=C(c1cccnc1)*; X9 = O=C(CCc1ccc(Br)cc1)*; Bn = c1ccc(C*)cc1

The molecules below were run against T1, LHRH receptors (Rattus norvegicus, UniProt P30969) (assay: Receptor Binding (radioligand receptor binding assay)). Settings: Receptor Binding pkI, table 4; rat pituitary membranes, radioligand 50 pM, 2 hours at 4° C.
T1 construct: Pituitary membranes containing LHRH receptors are prepared in batches from quick-frozen rat pituitaries; tissue Hilltop Labs; host or cells: rat pituitary membranes
T1 sequence (P30969 1-327): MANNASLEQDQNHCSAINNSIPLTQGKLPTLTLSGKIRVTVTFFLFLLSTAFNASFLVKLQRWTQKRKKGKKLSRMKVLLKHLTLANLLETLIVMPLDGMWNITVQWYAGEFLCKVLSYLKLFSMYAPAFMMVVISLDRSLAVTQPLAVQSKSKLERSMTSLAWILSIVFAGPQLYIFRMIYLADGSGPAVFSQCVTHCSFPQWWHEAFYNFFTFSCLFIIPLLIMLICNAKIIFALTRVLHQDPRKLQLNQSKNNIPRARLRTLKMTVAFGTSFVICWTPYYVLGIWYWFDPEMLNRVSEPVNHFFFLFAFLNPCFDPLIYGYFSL

SMILES	Ki
CC(C)C[C@H](NC(=O)[C@@H](CCCCN)NC(=O)[C@H](Cc1ccc(O)cc1)NC(=O)[C@H](COCc1ccccc1)NC(=O)[C@@H](Cc1cccs1)NC(=O)CCc1ccc(Cl)cc1)C(=O)N[C@@H](CCCNC(=N)N)C(=O)N1CCC[C@H]1C(=O)N[C@H](C)C(N)=O [Compound 167, (3-10)[N-(3-(4-Chlorophenyl)propionyl)-D-Thia^3 -Ser(O-Bzl)^4 -D-Lys^6 -D-Ala^10]LHRH] ({Propanoyl(3-(4-Cl-Ph))}-[d2Thi]S(Bn)Y[dK]LRP[dA]-NH2)	0.457 nM

Same assay, conditions: table 4; rat pituitary membranes, radioligand 50 pM, 2 hours at 4° C.; read-out: Receptor Binding pkI (converted)

Ki	SMILES
0.00575 nM	CC(C)C[C@H](NC(=O)[C@@H](CCCCN)NC(=O)[C@H](Cc1ccc(O)cc1)N(C)C(=O)[C@H](CO)NC(=O)[C@@H](Cc1c[nH]c2ccccc12)NC(=O)CCc1ccc(F)cc1)C(=O)N[C@@H](CCCNC(=N)N)C(=O)N1CCC[C@H]1C(=O)N[C@H](C)C(N)=O [Compound 173, (3-10)[N-(3-(4-Fluorophenyl)propionyl)-D-Trp^3 -NMeTyr^5 -D-Lys^6 -D-Ala^10]LHRH] ({Propanoyl(3-(4-F-phenyl))}-[dW]S[NMeY][dK]LRP[dA]-NH2)
0.0132 nM	CC(C)C[C@H](NC(=O)[C@@H](CCCCNC(=O)c1cccnc1)NC(=O)[C@H](Cc1ccc(O)cc1)N(C)C(=O)[C@H](CO)NC(=O)[C@@H](Cc1cccc2ccccc12)NC(=O)CCc1ccc(F)cc1)C(=O)N[C@@H](CCCNC(=N)N)C(=O)N1CCC[C@H]1C(=O)N[C@H](C)C(N)=O [Compound 174, (3-10)[N-(3-(4-Fluorophenyl)propionyl)-D-1-Nal^3 -NMeTyr^5 -D-Lys^6 (N-epsilon-nicotinyl)-D-Ala^10]LHRH] ({Propanoyl(3-(4-F-phenyl))}-[d1Nal]S[NMeY][dK](Nicotinoyl)LRP[dA]-NH2)
0.00631 nM	CC(C)C[C@H](NC(=O)[C@@H](CCCCN)NC(=O)[C@H](Cc1ccc(O)cc1)N(C)C(=O)[C@H](CO)NC(=O)[C@@H](Cc1ccc(Cl)cc1)NC(=O)CCc1ccc(F)cc1)C(=O)N[C@@H](CCCNC(=N)N)C(=O)N1CCC[C@H]1C(=O)N[C@H](C)C(N)=O [Compound 175, (3-10)[N-(3-(4-Fluorophenyl)propionyl)-D-4-Cl-Phe^3 -NMeTyr^5 -D-Lys^6 -D-Ala^10]LHRH] ({Propanoyl(3-(4-F-phenyl))}-[dPhe(4-Cl)]S[NMeY][dK]LRP[dA]-NH2)
2.88 nM	CC(C)C[C@H](NC(=O)[C@@H](CCCCN)NC(=O)[C@H](Cc1ccc(O)cc1)N(C)C(=O)[C@H](CCCc1ccccc1)NC(=O)[C@@H](Cc1cccc2ccccc12)NC(=O)CCc1ccc(F)cc1)C(=O)N[C@@H](CCCNC(=N)N)C(=O)N1CCC[C@H]1C(=O)N[C@H](C)C(N)=O [Compound 176, (3-10)[N-(3-(4-Fluorophenyl)propionyl)-D-1-Nal^3-hhPhe^4 -NMeTyr^5 -D-Lys^6 -D-Ala^10]LHRH] ({Propanoyl(3-(4-F-phenyl))}-[d1Nal][hhPhe][NMeY][dK]LRP[dA]-NH2)
0.00955 nM	CC(C)C[C@H](NC(=O)[C@@H](CCCCNC(N)=O)NC(=O)[C@H](Cc1ccc(O)cc1)N(C)C(=O)[C@H](CO)NC(=O)[C@@H](Cc1cccc2ccccc12)NC(=O)CCc1ccc(F)cc1)C(=O)N[C@@H](CCCNC(=N)N)C(=O)N1CCC[C@H]1C(=O)N[C@H](C)C(N)=O [Compound 178, (3-10)[N-(3-(4-Fluorophenyl)propionyl)-D-1-Nal^3 -NMeTyr^5 -D-Hcit^6 -D-Ala^10]LHRH] ({Propanoyl(3-(4-F-phenyl))}-[d1Nal]S[NMeY][d(hCit)]LRP[dA]-NH2)
0.0055 nM	CC(C)C[C@H](NC(=O)[C@@H](CO)NC(=O)[C@H](Cc1ccc(O)cc1)N(C)C(=O)[C@H](CO)NC(=O)[C@H](Cc1cccc2ccccc12)NC(=O)CCc1ccc(F)cc1)C(=O)N[C@@H](CCCNC(=N)N)C(=O)N1CCC[C@H]1C(=O)N[C@H](C)C(N)=O [Compound 180, (3-10)[N-(3-(4-Fluorophenyl)propionyl)-1-Nal^3 -NMeTyr^5 -D-Ser^6 -D-Ala^10]LHRH] ({Propanoyl(3-(4-F-phenyl))}-[1Nal]S[NMeY][dS]LRP[dA]-NH2)
0.00398 nM	CC(C)C[C@H](NC(=O)[C@@H](CO)NC(=O)[C@H](Cc1ccc(O)cc1)N(C)C(=O)[C@H](CO)NC(=O)[C@@H](Cc1cccc2ccccc12)NC(=O)CCc1ccc(F)cc1)C(=O)N[C@@H](CCCNC(=N)N)C(=O)N1CCC[C@H]1C(=O)N[C@H](C)C(N)=O [Compound 181, (3-10)[N-(3-(4-Fluorophenyl)propionyl)-D-1-Nal^3 -NMeTyr^5 -D-Ser^6 -D-Ala^10]LHRH] ({Propanoyl(3-(4-F-phenyl))}-[d1Nal]S[NMeY][dS]LRP[dA]-NH2)
0.0263 nM	CC(C)C[C@H](NC(=O)[C@@H](CCCCN)NC(=O)[C@H](Cc1ccc(O)cc1)N(C)C(=O)[C@H](CO)NC(=O)[C@@H](Cc1cncs1)NC(=O)CCc1ccc(F)cc1)C(=O)N[C@@H](CCCNC(=N)N)C(=O)N1CCC[C@H]1C(=O)N[C@H](C)C(N)=O [Compound 183, (3-10)[N-(3-(4-Fluorophenyl)propionyl)-D-Thiaz^3 -NMeTyr^5 -D-Lys^6 -D-Ala^10]LHRH] ({Propanoyl(3-(4-F-phenyl))}-[X10]S[NMeY][dK]LRP[dA]-NH2)

The next lines start with the molecule.

SMILES	Ki
CCNC(=O)[C@@H]1CCCN1C(=O)[C@H](CCCNC(=N)N)NC(=O)[C@H](CC(C)C)NC(=O)[C@@H](Cc1c[nH]c2ccccc12)NC(=O)[C@H](Cc1ccc(O)cc1)N(C)C(=O)[C@H](CO)NC(=O)[C@@H](Cc1cccc2ccccc12)NC(=O)CCc1ccc(Br)cc1 [Compound 159, (3-9)[N-(3-(4-Bromophenyl)propionyl)-D -1-Nal^3 -NMeTyr^5 -DTrp^6 -Pro^9 NHEt]LHRH] (X9-[d1Nal]S[NMeY][dW]LRP-NHEt)	0.0562 nM
CCNC(=O)[C@@H]1CCCN1C(=O)[C@H](CCCNC(=N)N)NC(=O)[C@H](CC(C)C)NC(=O)[C@@H](Cc1c[nH]c2ccccc12)NC(=O)[C@H](Cc1ccc(O)cc1)N(C)C(=O)[C@H](CO)NC(=O)[C@H](Cc1cccc2ccccc12)NC(=O)CCc1ccc(Br)cc1 [Compound 160, (3-9)[N-(3-(4-Bromophenyl)propionyl) -1-Nal^3 -NMeTyr^5 -DTrp^6 -Pro^9 NHEt]LHRH] (X9-[1Nal]S[NMeY][dW]LRP-NHEt)	0.11 nM
CC(C)C[C@H](NC(=O)[C@@H](CCCCNC(=O)c1cccnc1)NC(=O)[C@H](Cc1ccc(O)cc1)N(C)C(=O)[C@H](CO)NC(=O)[C@@H](Cc1cccs1)NC(=O)CCc1ccc(F)cc1)C(=O)N[C@@H](CCCNC(=N)N)C(=O)N1CCC[C@H]1C(=O)N[C@H](C)C(N)=O [Compound 161, N-[3-(4-Fluorophenyl)propionyl]-D-Thia-Ser-NMeTyr-D -Lys(N-epsilon-nicotinyl)-Leu-Arg-Pro-D-AlaNH2] ({Propanoyl(3-(4-F-phenyl))}-[d2Thi]S[NMeY][dK](Nicotinoyl)LRP[dA]-NH2)	0.0151 nM
CC(C)C[C@H](NC(=O)[C@@H](Cc1c[nH]c2ccccc12)NC(=O)[C@H](Cc1ccc(O)cc1)NC(=O)[C@H](CO)NC(=O)[C@@H](Cc1c[nH]c2ccccc12)NC(=O)CCc1ccc(F)cc1)C(=O)N[C@@H](CCCNC(=N)N)C(=O)N1CCC[C@H]1C(=O)N[C@H](C)C(N)=O [Compound 162, (3-10)[N-(3-(4-Fluorophenyl)propionyl)-D-Trp^3,6 -D-Ala^10]LHRH] ({Propanoyl(3-(4-F-phenyl))}-[dW]SY[dW]LRP[dA]-NH2)	0.0105 nM
CC(C)C[C@H](NC(=O)[C@@H](Cc1c[nH]c2ccccc12)NC(=O)[C@H](Cc1ccc(O)cc1)N(C)C(=O)[C@H](CO)NC(=O)[C@@H](Cc1c[nH]c2ccccc12)NC(=O)CCc1ccc(F)cc1)C(=O)N[C@@H](CCCNC(=N)N)C(=O)N1CCC[C@H]1C(=O)N[C@H](C)C(N)=O [Compound 164, (3-10)[N-(3-(4-Fluorophenyl)propionyl)-D-Trp^3,6 -NMeTyr^5 -D-Ala^10]LHRH] ({Propanoyl(3-(4-F-phenyl))}-[dW]S[NMeY][dW]LRP[dA]-NH2)	0.0537 nM
CC(C)C[C@H](NC(=O)[C@@H](CCCCN)NC(=O)[C@H](Cc1ccc(O)cc1)N(C)C(=O)[C@H](COCc1ccccc1)NC(=O)[C@@H](Cc1cccs1)NC(=O)CCc1ccc(Cl)cc1)C(=O)N[C@@H](CCCNC(=N)N)C(=O)N1CCC[C@H]1C(=O)N[C@H](C)C(N)=O [Compound 168, (3-10)[N-(3-(4-Chlorophenyl)propionyl)-D-Thia^3 -Ser(O-Bzl)^4 -NMeTyr^5 -D-Lys^6 -D-Ala^10]LHRH] ({Propanoyl(3-(4-Cl-Ph))}-[d2Thi]S(Bn)[NMeY][dK]LRP[dA]-NH2)	0.129 nM
CC(C)C[C@H](NC(=O)[C@@H](CCCCN)NC(=O)[C@H](Cc1ccc(O)cc1)N(C)C(=O)[C@H](CO)NC(=O)[C@@H](Cc1cccnc1)NC(=O)CCc1ccc(F)cc1)C(=O)N[C@@H](CCCNC(=N)N)C(=O)N1CCC[C@H]1C(=O)N[C@H](C)C(N)=O [Compound 170, (3-10)[N-(3-(4-Fluorophenyl)propionyl)-D-3-Pal^3 -NMeTyr^5 -D-Lys^6 -D-Ala^10]LHRH] ({Propanoyl(3-(4-F-phenyl))}-[d3Pal]S[NMeY][dK]LRP[dA]-NH2)	0.0204 nM
CC(C)C[C@H](NC(=O)[C@@H](CCCCNC(=O)c1cccnc1)NC(=O)[C@H](Cc1ccc(O)cc1)N(C)C(=O)[C@H](CO)NC(=O)[C@@H](Cc1cccnc1)NC(=O)CCc1ccc(F)cc1)C(=O)N[C@@H](CCCNC(=N)N)C(=O)N1CCC[C@H]1C(=O)N[C@H](C)C(N)=O [Compound 171] ({Propanoyl(3-(4-F-phenyl))}-[d3Pal]S[NMeY][dK](Nicotinoyl)LRP[dA]-NH2)	0.0676 nM
